The numbers were not newly measured in patent publication US10258599B2, “Compounds for use in the prevention or treatment of cancer” (SEMMELWEIS UNIVERSITY, priority 2014, dated 2019), which cites them from elsewhere.

The test system of data set [1] is isolated rat brain stem. The following applies: optimal concentration for the specific enhancer effect, 3-min collection period; review Knoll, 2005; cited from earlier work.
Data set [2] deals with T1, MAO-B (Rattus norvegicus, UniProt P19643).
T1 construct: from tissue; host or cells: brain, in vivo dosing
T1 sequence (P19643 1-520): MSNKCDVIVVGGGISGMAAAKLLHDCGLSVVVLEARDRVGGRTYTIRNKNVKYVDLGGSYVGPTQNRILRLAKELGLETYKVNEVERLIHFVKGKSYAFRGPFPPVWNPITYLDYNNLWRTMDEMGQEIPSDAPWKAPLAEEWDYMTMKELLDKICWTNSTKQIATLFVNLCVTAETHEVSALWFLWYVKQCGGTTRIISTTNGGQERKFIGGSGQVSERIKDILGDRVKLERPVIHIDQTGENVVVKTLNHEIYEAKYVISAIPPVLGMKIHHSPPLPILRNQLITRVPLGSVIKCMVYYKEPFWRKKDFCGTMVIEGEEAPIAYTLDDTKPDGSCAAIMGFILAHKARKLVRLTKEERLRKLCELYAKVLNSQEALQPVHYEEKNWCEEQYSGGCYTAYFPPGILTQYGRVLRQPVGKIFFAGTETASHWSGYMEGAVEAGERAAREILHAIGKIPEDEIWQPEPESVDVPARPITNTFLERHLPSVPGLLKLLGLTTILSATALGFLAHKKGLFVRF
As to conditions: in vivo; cited from earlier work.

`CCCN[C@H](CCC)Cc1cc2ccccc2o1` [(−)-BPAP, (2R)-1-(1-benzofuran-2-yl)-N-propylpentane-2-amine]: the “released amount of labeled transmitter ([3H]-norepinephrine, [3H]-dopamine or [3H]-serotonin)” value in data set [1] is listed as “significantly higher”. The MAO-B inhibitory potency entry in data set [2] is recorded as “devoid of MAO-B inhibitory potency”.
